Structures are written as SMILES.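 Tested at 5 concentrations; 48 h exposure; 96-well plates; endpoints linearly interpolated, else capped at highest concentration. Abbreviation: GI50, concentration required for 50% inhibition of growth. TGI denotes the concentration required for complete inhibition of growth.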

Among the test systems are ACHN renal; HT29 colon; PC-3 prostate; SF-295 CNS; SK-MEL-2 melanoma; SK-MEL-5 melanoma; SNB-19 CNS; SNB-75 CNS.
Holding throughout (test): NCI-60 cell line screen, 48 h

As to `COc1cccc(-n2nc(C)c3c(N/N=C(\C)c4ccncc4)ncnc32)c1`, the GI50 is above 25 µM in the assay on ACHN renal; above 25 µM with HT29 colon; above 25 µM in the assay with PC-3 prostate; above 25 µM with SF-295 CNS; above 25 µM in the assay on SK-MEL-2 melanoma; 3.02 µM in the assay on SK-MEL-5 melanoma. For the same compound, the GI50 is above 25 µM in the assay on SNB-19 CNS and above 9.22 µM in the assay with SNB-75 CNS. Moreover, the TGI in the assay with ACHN renal, with HT29 colon, in the assay with PC-3 prostate, in the assay on SF-295 CNS, with SK-MEL-2 melanoma and in the assay on SK-MEL-5 melanoma was above 25 µM throughout. The TGI in the assay on SNB-19 CNS and in the assay on SNB-75 CNS was above 25 µM in each case.
As to `O=C(Nc1cccc(-n2cc(-c3ccncc3)c(-c3cc(O)cc(Cl)c3)n2)c1)Nc1ccc(Cl)c(C(F)(F)F)c1`, the GI50 in the assay on ACHN renal is 3.1 µM; in the assay with HT29 colon, 2.12 µM; in the assay with PC-3 prostate, 2.1 µM; with SF-295 CNS it was 2.05 µM; with SK-MEL-2 melanoma, 2.2 µM; in the assay with SK-MEL-5 melanoma, 1.69 µM. In addition, the GI50 with SNB-19 CNS is 3.7 µM; in the assay with SNB-75 CNS it was 1.49 µM. The TGI in the assay on ACHN renal is 15.3 µM; with HT29 colon, 4.58 µM; in the assay on PC-3 prostate, 6.43 µM; in the assay with SF-295 CNS, 4.95 µM; in the assay on SK-MEL-2 melanoma, 4.55 µM; with SK-MEL-5 melanoma it was 3.23 µM. Also, the values for the TGI in the assay with SNB-19 CNS and with SNB-75 CNS were 16.6 µM and 6.36 µM, respectively.
Regarding `CC1(N)CCN(c2cccnc2NC(=O)c2nc(-c3ncccc3C(F)(F)F)cnc2N)CC1`, the GI50 was 19.2 µM with ACHN renal; 19.6 µM with HT29 colon; 30.9 µM in the assay on PC-3 prostate; 99.3 µM in the assay with SF-295 CNS; 50.9 µM in the assay with SK-MEL-2 melanoma; 18.3 µM in the assay with SK-MEL-5 melanoma. For the same compound, the GI50 in the assay with SNB-19 CNS is 50 µM; in the assay on SNB-75 CNS, 18.9 µM. Further, the TGI with ACHN renal was above 100 µM; in the assay with HT29 colon it was above 100 µM; in the assay on PC-3 prostate, above 100 µM; in the assay on SF-295 CNS, above 100 µM; in the assay with SK-MEL-2 melanoma it was above 100 µM; in the assay with SK-MEL-5 melanoma, 33 µM. The TGI with SNB-19 CNS and in the assay with SNB-75 CNS was above 100 µM each time.
As to `COc1cc2c3c(n(CCCCN)c(=O)c2cc1OC)-c1cc2c(cc1C3=O)OCO2`, the GI50 in the assay on ACHN renal was 0.38 µM; with HT29 colon, 0.586 µM; with PC-3 prostate, 0.159 µM; with SF-295 CNS, 0.274 µM; in the assay with SK-MEL-2 melanoma, 6.3 µM; in the assay with SK-MEL-5 melanoma it was 1.6 µM. For the same compound, the figures for the GI50 in the assay on SNB-19 CNS and in the assay with SNB-75 CNS were 0.464 µM and 0.778 µM, respectively. The TGI with ACHN renal stood at 1.35 µM; with HT29 colon it was 25 µM; in the assay with PC-3 prostate, 0.583 µM; in the assay with SF-295 CNS it was 2.81 µM; in the assay on SK-MEL-2 melanoma it was 18 µM; in the assay on SK-MEL-5 melanoma, 6.4 µM. For the same compound, the results for the TGI in the assay on SNB-19 CNS and in the assay with SNB-75 CNS were 6.75 µM and 5.5 µM, respectively.
In the case of `O=C(Cn1c(=O)c(-c2ccccc2)nc2ccccc21)Nc1ccc(F)cc1`, the GI50 in the assay with ACHN renal is 42.6 µM; in the assay with HT29 colon, above 100 µM; in the assay on PC-3 prostate, 39.9 µM; in the assay on SF-295 CNS, above 100 µM; in the assay on SK-MEL-2 melanoma, 60.6 µM; with SK-MEL-5 melanoma it was 7.38 µM. Also, the GI50 is 41.8 µM with SNB-19 CNS and 38.8 µM in the assay with SNB-75 CNS. In addition, the TGI with ACHN renal, in the assay on HT29 colon, in the assay on PC-3 prostate, in the assay on SF-295 CNS, in the assay on SK-MEL-2 melanoma and in the assay with SK-MEL-5 melanoma was above 100 µM each time. The TGI with SNB-19 CNS and in the assay on SNB-75 CNS was above 100 µM throughout.
On to `O=C(N/C(=C/c1ccc(Cl)cc1Cl)c1nc2ccccc2s1)c1ccccc1`, for which the TGI in the assay with ACHN renal worked out at 19.5 µM; with HT29 colon it was 40.1 µM; in the assay with PC-3 prostate it was 38.9 µM; in the assay with SF-295 CNS, 26.5 µM; in the assay on SK-MEL-2 melanoma, 36.1 µM; in the assay on SK-MEL-5 melanoma, 26.4 µM. Further, the results for the TGI in the assay on SNB-19 CNS and in the assay on SNB-75 CNS were 41.1 µM and 34.4 µM, respectively.
Take `CCOC(=O)c1cc2c(n1Cc1cccc(OC)c1)-c1oncc1CCC2`: the GI50 was 4.42 µM in the assay on ACHN renal; 0.401 µM in the assay on HT29 colon; 1.67 µM with PC-3 prostate; 0.616 µM with SF-295 CNS; 0.535 µM with SK-MEL-2 melanoma; 0.693 µM in the assay with SK-MEL-5 melanoma. The GI50 with SNB-19 CNS was 25.3 µM; in the assay on SNB-75 CNS, 0.927 µM. Further, the TGI was above 100 µM with ACHN renal; 22.8 µM with HT29 colon; above 100 µM with PC-3 prostate; above 100 µM with SF-295 CNS; 14.9 µM in the assay with SK-MEL-2 melanoma; 14.8 µM with SK-MEL-5 melanoma. Further, the figures for the TGI in the assay with SNB-19 CNS and in the assay on SNB-75 CNS were above 100 µM and 6.56 µM, respectively.
Consider `CC1CC2OC(=O)C(C)C2CC2(C)C(OC3OC(CO)C(O)C(O)C3O)OCCC12` (centres undefined), for which the TGI in the assay on ACHN renal, with HT29 colon, in the assay on PC-3 prostate, in the assay with SF-295 CNS, in the assay on SK-MEL-2 melanoma and in the assay with SK-MEL-5 melanoma was above 100 µM in each case. Besides, the TGI with SNB-19 CNS and with SNB-75 CNS was above 100 µM each time.
As to `CCCCC[C@H]1C/C=C2/C(=O)C=C[C@@H]2C/C=C\CCCC(=O)O[C@@H](CCCCC)C/C=C2/C(=O)C=C[C@@H]2C/C=C\CCCC(=O)O1`, the GI50 in the assay with ACHN renal was 0.373 µM; in the assay on HT29 colon, 0.218 µM; in the assay on PC-3 prostate, 0.285 µM; in the assay on SF-295 CNS, 0.506 µM; in the assay on SK-MEL-2 melanoma, 0.385 µM; with SK-MEL-5 melanoma, 0.414 µM. For the same compound, the figures for the GI50 with SNB-19 CNS and in the assay with SNB-75 CNS were 0.318 µM and 0.552 µM, respectively. Further, the TGI with ACHN renal is 0.755 µM; with HT29 colon, 0.822 µM; with PC-3 prostate it was 0.806 µM; with SF-295 CNS, 1.29 µM; in the assay on SK-MEL-2 melanoma it was 1.22 µM; with SK-MEL-5 melanoma it was 0.791 µM. The TGI worked out at 0.809 µM in the assay on SNB-19 CNS and 2.4 µM in the assay on SNB-75 CNS.
In the case of `COC(=O)[C@@]12OC[C@]34[C@H]([C@@H](O)[C@@H]1O)[C@@]1(C)[C@H](O)C(=O)C=C(C)[C@@H]1C[C@H]3OC(=O)C(OC(C)=O)[C@@H]24` (some centres undefined), the GI50 in the assay with ACHN renal was 0.0502 µM; in the assay on HT29 colon, 0.0303 µM; with PC-3 prostate, 0.0334 µM; in the assay on SF-295 CNS, 0.0241 µM; in the assay on SK-MEL-2 melanoma, 0.0574 µM; in the assay on SK-MEL-5 melanoma it was 0.0162 µM. Moreover, the GI50 is 0.0232 µM in the assay on SNB-19 CNS and 0.0273 µM in the assay on SNB-75 CNS. The TGI in the assay with ACHN renal came out at 0.28 µM; in the assay with HT29 colon, 0.136 µM; with PC-3 prostate, 0.134 µM; in the assay on SF-295 CNS, 0.0847 µM; in the assay with SK-MEL-2 melanoma it was 0.319 µM; in the assay with SK-MEL-5 melanoma, 0.0406 µM. Moreover, the TGI with SNB-19 CNS was 0.299 µM; in the assay on SNB-75 CNS, 0.121 µM.

Values taken from PubChem BioAssay (NCI).
